Data reported in article PMC10818416, “Design, Synthesis, and Evaluation of New Hybrid Derivatives of 5,6-Dihydro-4H-pyrrolo[3,2,1-ij]quinolin-2(1H)-one as Potential Dual Inhibitors of Blood Coagulation Factors Xa and XIa” (Molecules, 2024).
Like-named read-outs stand apart in the source and are kept apart here.

Experiments:
Assay in all cases: chromogenic substrate hydrolysis, […] nm
Type in all cases: biochemical
factor XIa (FXIa) [1] = target: T1, factor XIa (FXIa) (Homo sapiens, UniProt P03951); details: […] enzyme, […] S2366, pH […], up to […] DMSO
T1 construct: gene F11

factor Xa (FXa) [2] = target: T2, factor Xa (FXa) (Homo sapiens, UniProt P00742); details: […] enzyme, […] S2765, pH […], up to […] DMSO
T2 construct: gene F10

factor Xa (FXa) [3] = target: T2, factor Xa (FXa)
factor XIa (FXIa) [4] = target: T1, factor XIa (FXIa)
thrombin = target: T3, thrombin (Homo sapiens, UniProt P00734); details: […] enzyme, […] Tos-Gly-Pro-Arg-pNA, pH […], up to […] DMSO
T3 construct: gene F2

T2 sequence (P00742 41-179): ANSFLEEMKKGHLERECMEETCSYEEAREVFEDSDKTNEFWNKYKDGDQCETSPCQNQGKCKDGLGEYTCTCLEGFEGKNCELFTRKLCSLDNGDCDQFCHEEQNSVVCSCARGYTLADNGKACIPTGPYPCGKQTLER
T2 sequence (P00742 235-488): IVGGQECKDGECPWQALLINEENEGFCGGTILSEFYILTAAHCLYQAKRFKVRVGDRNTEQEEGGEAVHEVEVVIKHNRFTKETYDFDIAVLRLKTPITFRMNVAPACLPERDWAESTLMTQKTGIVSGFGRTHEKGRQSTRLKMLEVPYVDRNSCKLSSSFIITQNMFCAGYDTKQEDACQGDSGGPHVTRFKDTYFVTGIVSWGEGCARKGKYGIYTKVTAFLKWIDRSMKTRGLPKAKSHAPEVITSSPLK
T1 sequence (P03951 19-387): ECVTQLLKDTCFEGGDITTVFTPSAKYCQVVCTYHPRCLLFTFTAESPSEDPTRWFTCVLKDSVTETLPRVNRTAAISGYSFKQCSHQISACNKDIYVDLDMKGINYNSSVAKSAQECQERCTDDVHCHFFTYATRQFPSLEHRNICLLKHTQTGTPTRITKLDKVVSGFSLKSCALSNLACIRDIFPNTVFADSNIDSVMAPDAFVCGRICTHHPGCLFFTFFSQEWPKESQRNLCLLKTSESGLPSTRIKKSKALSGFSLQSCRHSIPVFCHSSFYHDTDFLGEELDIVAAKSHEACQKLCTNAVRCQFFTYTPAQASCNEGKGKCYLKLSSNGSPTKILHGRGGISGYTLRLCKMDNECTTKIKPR
T1 sequence (P03951 388-625): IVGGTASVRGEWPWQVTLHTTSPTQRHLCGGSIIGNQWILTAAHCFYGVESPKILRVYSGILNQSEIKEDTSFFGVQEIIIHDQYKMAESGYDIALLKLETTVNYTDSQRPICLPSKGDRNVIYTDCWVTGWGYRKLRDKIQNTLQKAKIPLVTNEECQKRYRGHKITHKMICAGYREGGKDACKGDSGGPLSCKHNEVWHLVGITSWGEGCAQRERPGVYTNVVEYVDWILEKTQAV

SMILES: COC(=O)C=C1SC(NN=C2C(=O)N3c4c2cc(C)cc4C(C)(c2ccc(Cl)cc2)CC3(C)C)=NC1=O (mixture of isomers) [3j, Methyl 2-(2-(2-(6-(4-chlorophenyl)-4,4,6,8-tetramethyl-2-oxo-5,6-dihydro-4H-pyrrolo[3,2,1-ij]quinolin-1(2H)-ylidene)hydrazineyl)-4-oxothiazol-5(4H)-ylidene)acetate]
- Percent Inhibition at 30 μM / XIa (factor XIa (FXIa) [1]): 83%

SMILES: COC(=O)/C=C1\SC(N/N=C2\C(=O)N3c4c2cccc4C(C)(c2ccc(Cl)cc2)CC3(C)C)=NC1=O (stereo not shown) [3i, Methyl (Z)-2-(2-(2-((Z)-6-(4-chlorophenyl)-4,4,6-trimethyl-2-oxo-5,6-dihydro-4H-pyrrolo[3,2,1-ij]quinolin-1(2H)-ylidene)hydrazineyl)-4-oxothiazol-5(4H)-ylidene)acetate]
- Percent Inhibition at 30 μM / Xa (factor Xa (FXa) [2]): 87%

SMILES: COC(=O)/C=C1\SC(N/N=C2\C(=O)N3c4c2cc(Br)cc4C(C)(c2ccc(Cl)cc2)CC3(C)C)=NC1=O (stereo not shown) [3l, Methyl (Z)-2-(2-(2-((Z)-8-bromo-6-(4-chlorophenyl)-4,4,6-trimethyl-2-oxo-5,6-dihydro-4H-pyrrolo[3,2,1-ij]quinolin-1(2H)-ylidene)hydrazineyl)-4-oxothiazol-5(4H)-ylidene)acetate]
- IC50 (factor Xa (FXa) [3]): 1.74 ± 0.21 µM
- IC50 (factor XIa (FXIa) [4]): 3.61 ± 1.7 µM

SMILES: COC(=O)/C=C1\SC(N/N=C2\C(=O)N3c4c2cc(OC)cc4C(C)CC3(C)C)=NC1=O (stereo not shown) [3b, Methyl (Z)-2-(2-(2-((Z)-8-methoxy-4,4,6-trimethyl-2-oxo-5,6-dihydro-4H-pyrrolo[3,2,1-ij]quinolin-1(2H)-ylidene)hydrazineyl)-4-oxothiazol-5(4H)-ylidene)acetate]
- IC50 (factor Xa (FXa) [3]): 5.76 ± 1.08 µM
- IC50 (factor XIa (FXIa) [4]): 8.1 ± 0.2 µM

SMILES: COC(=O)/C=C1\SC(N/N=C2\C(=O)N3c4c2cccc4C(C)(c2ccccc2)CC3(C)C)=NC1=O (stereo not shown) [3n, Methyl (Z)-2-(4-oxo-2-(2-((Z)-4,4,6-trimethyl-2-oxo-6-phenyl-5,6-dihydro-4H-pyrrolo[3,2,1-ij]quinolin-1(2H)-ylidene)hydrazineyl)thiazol-5(4H)-ylidene)acetate]
- IC50 (factor Xa (FXa) [3]): 1.86 ± 0.07 µM
- IC50 (factor XIa (FXIa) [4]): 11.5 ± 0.98 µM

SMILES: COC(=O)/C=C1\SC(N/N=C2\C(=O)N3c4c(cc(C)c(C)c42)C(C)CC3(C)C)=NC1=O (stereo not shown) [3f, Methyl (Z)-2-(4-oxo-2-(2-((Z)-4,4,6,8,9-pentamethyl-2-oxo-5,6-dihydro-4H-pyrrolo[3,2,1-ij]quinolin-1(2H)-ylidene)hydrazineyl)thiazol-5(4H)-ylidene)acetate]
- IC50 (factor Xa (FXa) [3]): 4.02 ± 0.6 µM
- IC50 (factor XIa (FXIa) [4]): 7.97 ± 0.63 µM

SMILES: COC(=O)/C=C1\SC(N/N=C2\C(=O)N3c4c2cc(Cl)cc4C(C)(c2ccccc2)CC3(C)C)=NC1=O (stereo not shown) [3o, Methyl (Z)-2-(2-(2-((Z)-8-chloro-4,4,6-trimethyl-2-oxo-6-phenyl-5,6-dihydro-4H-pyrrolo[3,2,1-ij]quinolin-1(2H)-ylidene)hydrazineyl)-4-oxothiazol-5(4H)-ylidene)acetate]
- IC50 (factor Xa (FXa) [3]): 1.34 ± 0.16 µM
- IC50 (factor XIa (FXIa) [4]): 7.21 ± 0.22 µM

SMILES: COC(=O)/C=C1\SC(N/N=C2\C(=O)N3c4c2cc(Br)cc4C(C)CC3(C)C)=NC1=O (stereo not shown) [3d, Methyl (Z)-2-(2-(2-((Z)-8-bromo-4,4,6-trimethyl-2-oxo-5,6-dihydro-4H-pyrrolo[3,2,1-ij]quinolin-1(2H)-ylidene)hydrazineyl)-4-oxothiazol-5(4H)-ylidene)acetate]
- Percent Inhibition at 30 μM / XIa (factor XIa (FXIa) [1]): 96%

SMILES: COC(=O)/C=C1\SC(N/N=C2\C(=O)N3c4c2cc(Cl)cc4C(C)CC3(C)C)=NC1=O (stereo not shown) [3c, Methyl (Z)-2-(2-(2-((Z)-8-chloro-4,4,6-trimethyl-2-oxo-5,6-dihydro-4H-pyrrolo[3,2,1-ij]quinolin-1(2H)-ylidene)hydrazineyl)-4-oxothiazol-5(4H)-ylidene)acetate]
- IC50 (factor Xa (FXa) [3]): 2.84 ± 0.04 µM
- IC50 (factor XIa (FXIa) [4]): 12.2 ± 0.2 µM

SMILES: COC(=O)/C=C1\SC(N/N=C2\C(=O)N3c4c2cc(Cl)cc4C(C)(c2ccc(Cl)cc2)CC3(C)C)=NC1=O (stereo not shown) [3k, Methyl (Z)-2-(2-(2-((Z)-8-chloro-6-(4-chlorophenyl)-4,4,6-trimethyl-2-oxo-5,6-dihydro-4H-pyrrolo[3,2,1-ij]quinolin-1(2H)-ylidene)hydrazineyl)-4-oxothiazol-5(4H)-ylidene)acetate]
- IC50 (factor Xa (FXa) [3]): 1.17 ± 0.26 µM
- IC50 (factor XIa (FXIa) [4]): 4.59 ± 0.54 µM

SMILES: COC(=O)C=C1SC(NN=C2C(=O)N3c4c2cc(I)cc4C(C)CC3(C)C)=NC1=O (mixture of isomers) [3e, Methyl 2-(2-(2-(8-iodo-4,4,6-trimethyl-2-oxo-5,6-dihydro-4H-pyrrolo[3,2,1-ij]quinolin-1(2H)-ylidene)hydrazineyl)-4-oxothiazol-5(4H)-ylidene)acetate]
- Percent Inhibition of Thrombin at 30 μM (thrombin): 96%
- IC50 (factor Xa (FXa) [3]; […] enzyme, […] S2765, pH […], up to […] DMSO): 4.23 ± 0.31 µM
- IC50 (factor XIa (FXIa) [4]; […] enzyme, […] S2366, pH […], up to […] DMSO): 8.03 ± 0.68 µM

SMILES: COC(=O)/C=C1\SC(N/N=C2\C(=O)N3c4c2cc(Br)cc4C(C)(c2ccccc2)CC3(C)C)=NC1=O (stereo not shown) [3p, Methyl (Z)-2-(2-(2-((Z)-8-bromo-4,4,6-trimethyl-2-oxo-6-phenyl-5,6-dihydro-4H-pyrrolo[3,2,1-ij]quinolin-1(2H)-ylidene)hydrazineyl)-4-oxothiazol-5(4H)-ylidene)acetate]
- IC50 (factor Xa (FXa) [3]): 1.83 ± 0.05 µM
- IC50 (factor XIa (FXIa) [4]): 3.87 ± 0.33 µM
